This is an account of results in patent EP0134485A2, “5-Cyclopropyl-5,8-dihydro-8-oxo-1,3-dioxolo-(4,5-g) quinoline-7-carboxylic acid, process for its preparation and bactericidal agent containing it” (BAYER AG, priority 1983, dated 1985).

What all share (assay): Agar dilution test (MIC), Isosensitest medium
Common to all, as to format: cell-based
(In general: In agar dilution, organisms are placed on agar that contains the substance at set levels.)

The subject of assay [1] is Klebsiella 6179. Conditions: strain Klebsiella 6179, Denley multipoint inoculator, read-out: MHK. The text has this:
(§1) In der nachstehenden Tabelle sind die MHK-Werte der erfindungsgemäßen Verbindung angegeben.

Assay [2] relates to Proteus 8175. Conditions: strain Proteus 8175, Denley multipoint inoculator, read-out: MHK.
Excerpt: as §1

The test system of assay [3] is Serratia 16040. The note with it: strain Serratia 16040, Denley multipoint inoculator, read-out: MHK.
Excerpt: as §1

The test system of assay [4] is Pseudom. W. The note with it: strain Pseudom. W., Denley multipoint inoculator, read-out: MHK.
Excerpt: as §1

Assay [5] deals with Streptococc. faec. 9790. Conditions: strain Streptococc. faec. 9790, Denley multipoint inoculator, read-out: MHK.
Excerpt: as §1

Assay [6] relates to Staph. aur. 133. The note with it: strain Staph. aur. 133, Denley multipoint inoculator, read-out: MHK.
Excerpt: as §1

Assay [7] has as its system Proteus mir. 8223. Conditions: strain Proteus mir. 8223, Denley multipoint inoculator, read-out: MHK.
Excerpt: as §1

For assay [8], the system named is E. coli 455/7. The note with it: Escherichia coli, strain E. coli 455/7, Denley multipoint inoculator, read-out: MHK.
Excerpt: as §1

≈ marks a conversion by molar mass, not a printed value.

For `O=C(O)c1cn(C2CC2)c2cc3c(cc2c1=O)OCO3` [I, 5-Cyclopropyl-5,8-dihydro-8-oxo-1,3-dioxolo[4,5-g]chinolin-7-carbonsäure], the MIC in assay [1] stood at 0.06 µg/mL (≈ 0.22 µM); in assay [2] it was 0.03 µg/mL (≈ 0.11 µM); in assay [3] it was 4 µg/mL (≈ 14.6 µM); in assay [4] it was 4 µg/mL (≈ 14.6 µM); in assay [5] it was 8 µg/mL (≈ 29.3 µM); in assay [6] it was 0.25 µg/mL (≈ 0.915 µM). Also, the results for the MIC in assay [7] and in assay [8] were 8 µg/mL (≈ 29.3 µM) and 16 µg/mL (≈ 58.6 µM), respectively.
